# Test system: healthy volunteers, 5 hour advance in bedtime
# Test: Example 1: placebo-controlled clinical trial, 5 hour advance in bedtime (DLMO, PSG)
# Format: in vivo, human
# Protocol: A clinical trial was conducted to assess the safety of Compound A as well as to determine the ability of Compound A to shift the sleep/wake cycle following a 5 hour advance in bedtime. The study was a randomized, double-blind, parallel group, placebo-controlled study. It consisted of a 2-4 week outpatient screening period followed by an 8-day inpatient stay. After acclimating to the sleep lab, bedtime was advanced by 5 hours. The primary objectives of this study were to investigate the exposure-response to Compound A on advancement of circadian release of endogenous melatonin rhythm as measured by dim light melatonin onset (DLMO, a biomarker of the sleep-wake cycle), to investigate the exposure-response to Compound A on mean sleep efficiency parameters as measured by PSG, to investigate the exposure-response to Compound A on objective neurobehavioral performance lapses during scheduled work-time as measured by computerized continuous performance testing, and to assess the safety and tolerability of Compound A. Forty-five healthy volunteers, men and women aged 18-50, were enrolled into this study. Thirty-nine subjects were randomized.
# The study was designed to assess the safety and efficacy of four oral doses of Compound A (10 mg, 20 mg, 50 mg and 100 mg) compared to matching placebo on circadian phase shift, sleep parameters during the major sleep episode, and subject alertness. After written informed consent was signed, subjects that met the inclusion/exclusion criteria at screening and baseline were enrolled into the 8-day in-patient portion of the study. All in-patient assessments were conducted in a time-isolation sleep lab in which no time cues were available to subjects. During the first three nights, subjects were given placebo 30 minutes prior to bedtime (11:00 PM) in a single-blind fashion. Baseline assessments for the efficacy parameters were measured during this period. At 5:00 PM on day 3, subjects started a 19 hour pre-constant posture (CP) segment during which time the subjects remained seated in a semi-recumbent position and blood samples were collected approximately every hour from 7:00 AM to 12:00 PM. The purpose of the pre-CP segment is to provide a measure of each subject's circadian phase before the start of the night shift segment. On day 4, subjects were randomized to once daily treatment in one of the five treatment groups. In addition, subject sleep-wake routines were advanced 5 hours, such that subjects were required to sleep from approximately 6:00 PM-2:00 AM. Treatment was administered and the time shift was maintained for 3 days. Efficacy parameters were collected during this time. To measure circadian phase at the end of the study, a 24-hour post-CP was conducted immediately after the treatment segment on day 7. Over the course of the study, approximately 500 mL of blood was drawn from each subject. Safety was assessed throughout the study, at the end of study (EOS) visit on day 8, and at the Follow-up visit. The target number of subjects for enrollment was 40 but 45 were actually enrolled.
# To assess circadian sleep-wake cycles in the study, plasma melatonin levels were assessed. The onset of melatonin production, or dim light melatonin onset (DLMO), is associated with onset of sleep. DLMO is considered a standard marker used frequently to assess circadian phase. To assess the effects of Compound A on the sleep-wake cycles, DLMO was monitored in subjects before and after treatment. For this study, DLMO was defined as the time when melatonin production reaches 25% of the nightly peak (MEL25% up) of the fitted melatonin phase curve.
# Because light has a significant confounding effect on melatonin release, light levels in the sleep laboratory were carefully regulated. […]
smiles,measurement,setting,value
"CCC(=O)NC[C@@H]1C[C@H]1c1cccc2c1CCO2 [Compound A, N-[[(1R,2R)-2-(2,3-dihydro-1-benzofuran-4-yl)cycloproply]methyl]propanamide]","Change in DLMO25%,LOQ5 between Night 4 and Night 3","10 mg, N = 8",0.18 h
same,Change in WASO (fraction of time awake from persistent sleep to lights on) between Night 4 and Night 2,"10 mg, N = 8",8.37 % points
same,Change in WASO between Night 4 and Night 2,"10 mg, N = 8",40.56 min
same,"Mean Change in Sleep Efficiency between Night 4 and Night 2, Full Night","10 mg, N = 8",−7.77 % points
same,Change in Latency to Persistent Sleep between Night 4 and Night 2,"10 mg, N = 8, mean ± SD, p 0.0034 vs placebo",-8.25 ± 16.34 min
same,"Mean Change in Sleep Efficiency between Night 4 and Night 2, 2nd Third of the Night","10 mg, N = 8, mean ± SD, p 0.0303 vs placebo",−12.64 ± 13.83 % points
same,"Change in DLMO25%,LOQ5 between Night 4 and Night 3","20 mg, N = 7",-1.14 h
same,Change in Latency to Persistent Sleep between Night 4 and Night 2,"20 mg, N = 8",5.00 min
same,Change in WASO (fraction of time awake from persistent sleep to lights on) between Night 4 and Night 2,"20 mg, N = 8",6.91 % points
same,Change in WASO between Night 4 and Night 2,"20 mg, N = 8",31.19 min
same,"Mean Change in Sleep Efficiency between Night 4 and Night 2, Full Night","20 mg, N = 8",−6.68 % points
same,"Mean Change in Sleep Efficiency between Night 4 and Night 2, 2nd Third of the Night","20 mg, N = 8, mean ± SD, p 0.0048 vs placebo",−5.11 ± 12.78 % points
same,"Change in DLMO25%,LOQ5 between Night 4 and Night 3","50 mg, N = 4",-0.50 h
same,Change in WASO (fraction of time awake from persistent sleep to lights on) between Night 4 and Night 2,"50 mg, N = 7",6.61 % points
same,Change in WASO between Night 4 and Night 2,"50 mg, N = 7",31.21 min
same,"Mean Change in Sleep Efficiency between Night 4 and Night 2, 2nd Third of the Night","50 mg, N = 7, mean ± SD, p 0.0028 vs placebo",−2.10 ± 4.14 % points
same,Change in Latency to Persistent Sleep between Night 4 and Night 2,"50 mg, N = 7, mean ± SD, p 0.0193 vs placebo",-3.71 ± 10.97 min
same,"Mean Change in Sleep Efficiency between Night 4 and Night 2, Full Night","50 mg, N = 7, mean ± SD, p 0.0487 vs placebo",−5.87 ± 9.89 % points
same,"Change in DLMO25%,LOQ5 between Night 4 and Night 3","100 mg, N = 5, mean ± SD, p 0.0276 vs placebo",-2.74 ± 1.95 h
same,Change in Latency to Persistent Sleep between Night 4 and Night 2,"100 mg, N = 6, mean ± SD, p 0.0214 vs placebo",-4.17 ± 6.93 min
same,"Mean Change in Sleep Efficiency between Night 4 and Night 2, 2nd Third of the Night","100 mg, N = 7, mean ± SD, p 0.0030 vs placebo",−2.30 ± 5.72 % points
same,"Mean Change in Sleep Efficiency between Night 4 and Night 2, Full Night","100 mg, N = 7, mean ± SD, p 0.0141 vs placebo",−2.02 ± 4.94 % points
same,Change in WASO (fraction of time awake from persistent sleep to lights on) between Night 4 and Night 2,"100 mg, N = 7, mean ± SD, p 0.0391 vs placebo",1.85 ± 4.29 % points
same,Change in WASO between Night 4 and Night 2,"100 mg, N = 7, mean ± SD, p 0.0452 vs placebo",8.50 ± 20.39 min
same,number of episodes of REM during the final third of the night,"Night 4, after phase advance",dose-related increase
same,percentage of time in each sleep stage,between Night 4 and Night 2,did not change
same,tolerability,"doses of 10, 20, 50, and 100 mg, conclusion from Examples 1 and 2",well-tolerated
same,lowest effective dose for DLMO shift,first dose with statistically significant p-value in ANOVA with contrasts,100 mg

# — patent US20120136050A1, “USE OF A MELATONIN AGONIST FOR THE TREATMENT OF SLEEP DISORDERS INCLUDING PRIMARY INSOMNIA” (VANDA PHARMACEUTICALS INC., priority 2009, published 2012)
